From patent US8592396B2, “Glucokinase activators and methods of using same” (Bristol-Myers Squibb Company, priority 2010, dated 2013) come the findings set out here.

The target of experiment [1] is T1, Human Glucokinase (Homo sapiens, UniProt P35557).
T1 construct: Full-length human hepatic GK (untagged) was expressed; made in house; host or cells: E. coli BL21 STAR (DE3)pLysS
T1 sequence (P35557 1-466 isoform P35557-2): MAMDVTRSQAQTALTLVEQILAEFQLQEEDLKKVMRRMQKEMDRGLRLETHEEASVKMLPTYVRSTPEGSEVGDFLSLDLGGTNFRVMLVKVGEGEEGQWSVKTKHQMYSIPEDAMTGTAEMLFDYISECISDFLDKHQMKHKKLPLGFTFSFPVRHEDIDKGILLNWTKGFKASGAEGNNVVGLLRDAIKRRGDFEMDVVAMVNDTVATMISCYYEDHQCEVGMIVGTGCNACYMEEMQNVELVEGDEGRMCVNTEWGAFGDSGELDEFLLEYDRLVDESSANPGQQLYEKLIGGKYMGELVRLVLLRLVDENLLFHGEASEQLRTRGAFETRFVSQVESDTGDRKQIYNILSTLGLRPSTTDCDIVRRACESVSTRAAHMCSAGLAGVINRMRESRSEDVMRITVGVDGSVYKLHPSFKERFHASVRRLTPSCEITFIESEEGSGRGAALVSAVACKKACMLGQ
As to the kind of experiment: Glucokinase tandem enzymatic assay. The following applies: 12 mM glucose; for Emax: expressed as a % of basal activation, read-out: Maximal activation (%) Human Glucokinase @ 12 mM Glucose. It is filed as biochemical. The protocol: Glucokinase Tandem Enzymatic Assay
Enzymatic activity of human glucokinase (GK) was measured by incubating GK, ATP, and glucose for discrete time periods followed by quenching with EDTA (ethylenediamine tetra-acetic acid). Relative amounts of product glucose-6-phosphate (G6P) were measured by then running a detection assay using G6P dehydrogenase and measuring the conversion of ThioNAD (thio-nicotinamide adenine dinucleotide) to ThioNADH (thio-dihydronicotinamide adenine dinucleotide) at a wavelength of 405 nm. This “uncoupled” enzymatic reaction is denoted as the GK “tandem” assay. Activation of GK by compounds can be assessed using this assay. The GK tandem assay protocol described below was followed using a range of activator compound concentrations from 0 to 100 μM at 5 and 12 mM of glucose. Human full-length glucokinase (GK, 15 nM) was incubated with 5 or 12 mM glucose in a 384 well black microtiter plate with a clear bottom. To initiate the GK reaction, magnesium-ATP (3 mM final concentration) was added to GK in buffer (final buffer conditions of 25 mM HEPES buffer, pH 7.1, containing 1 mM dithiothreitol and 5% DMSO). The total reaction volume was 20 μL. The reaction was allowed to proceed for ten minutes and was then quenched with 5 μL EDTA; 45 mM final). The components of the detection reaction, ThioNAD and G6PDH (glucose-6-phosphate dehydrogenase) (final concentrations of 650 μM and 3.33 Units, respectively), were then added together in a volume of 25 μL, (to give a total volume of 50 μL). Absorbance measurements were made at 405 nm on a SPECTRAMAX® Plus 384 absorbance plate reader (Molecular Devices). Absorbance was read, background glucose-6-phosphate levels were subtracted, after which activation was calculated as a percentage of control activity. Control activity was determined using GK in the presence of vehicle (DMSO), with background glucose-6-phosphate subtracted. Background glucose-6-phosphate was determined by pre-quenching GK with EDTA prior to reaction initiation with ATP.
Expression and Purification of Human GK
Full-length human hepatic GK (untagged) was expressed in BL21 STAR (DE3)pLysS cells (Invitrogen) at 25° C. as described by Mookhtiar et al. (1). The protein was purified essentially as described by Lange (2) with a slight modification. Briefly, cell pellets were lysed via three rounds of freezing and thawing, centrifuged at 15000 g for clarification, and precipitated with 40-65% (NH4)2SO4. The resulting pellet was resuspended in buffer, dialyzed, and applied directly to a Q-SEPHAROSE® (Sigma) column followed by elution with a linear 100-600 mM KCl gradient. GK containing fractions were pooled, dialyzed overnight vs. 25 mM Hepes pH 7.2/1 mM MgCl2/1 mM EDTA/0.1 M KCl/1 mM DTT, then dialyzed again with same buffer with 10% glycerol added.

Experiment [2] deals with male DIO (diet-induced obese) C57BL/6J mice. As to the kind of experiment: Oral glucose tolerance test (OGTT) in DIO mice. The note with it: 30 μmol/kg given orally 60 min before 2 g/kg oral glucose; DIO C57BL/6J mice; ΔAUC 0-120 min. It is filed as in vivo. The protocol:
In Vivo Studies: Oral Glucose Tolerance Test (OGTT)
Oral glucose tolerance tests were carried out on male DIO (diet-induced obese) C57BL/6J mice fed a high fat diet (60% kcal from fat) for 26 weeks prior to experimentation. Mice were fasted overnight before use for experiments. A test compound or vehicle (either: 1) 40% PEG 400+10% Cremophore+50% water or 2) 10% dimethyl acetamide+10% ethanol+10% Cremophore+70% water) was given orally 60 min before oral administration of a glucose solution at a dose of 2 g/kg body weight (oral glucose tolerance test; OGTT). Blood glucose levels were measured from tail-bled samples taken at different time points before and after administration of glucose (time course of 2 hours). A time curve of the blood glucose was generated and the change from baseline area-under-the curve (ΔAUC) from 0-120 min was calculated (the time glucose administration being time zero).

As a reminder, the EC50 is the midpoint of the concentration-response curve. Lower therefore signals higher potency in that assay. For `CCOP(C)(=O)Cc1csc(Nc2ncnc3ccc(OC(CF)CF)cc23)n1` (racemic) [Example 6], the midpoint of the response in experiment [1], the EC50, lay at 390 nM.

Consider `CCOP(=O)(Cc1csc(Nc2ncnc3ccc(OC(CF)CF)cc23)n1)OCC` [Example 1], for which, in experiment [1], the midpoint of the response, the EC50, lay at 91 nM and the Emax was found to be 145%. Besides, the “Reduction in Glucose AUC at 30 μmol/kg dose” value in experiment [2] stood at 93%.

For `CCOP(C)(=O)Cn1ccc(Nc2ncnc3ccc(OC(C)C)cc23)n1` (racemic) [Example 3], in experiment [1], the concentration giving a half-maximal response (EC50) stood at 810 nM and the Emax was 134%.

Turning to `CCOP(=O)(Cc1csc(Nc2ncnc3ccc(O[C@@H](C)COC)cc23)n1)OCC` [Example 4], the Emax in experiment [1] came out at 180%.

In experiment [1], `CCOP(=O)(Cc1csc(Nc2ncnc3ccc(OC(C)C)cc23)n1)OCC` [Example 2] came in with an EC50 of 136 nM.
